Laboratory results reported in EP2548555A1, “Proton pump inhibitors as immunomodulators” (Fondazione IRCCS Istituto Nazionale dei Tumori, priority 2011, dated 2013).

Legend:
[1] = test system: circulating monocytes; assay: Ex-vivo cytokine secretion by circulating monocytes of treated patients; assay type: in vivo, advanced melanoma patients; settings: after 3 days of high dose PPI treatment
Description: (§1) We also tested the effect of PPI in advanced melanoma patients receiving high dose esomeprazole (120mg/day for 3 days) in the context of a clinical trial testing the ability of PPI pretreatment to sensitized patients to chemotherapy (CISPLATIN).

[2] = test system: MDSC in peripheral blood; assay: Peripheral blood cell frequencies in advanced melanoma patients on high dose esomeprazole; assay type: in vivo; settings: esomeprazole 120mg/day for 3 days
Description: as §1

[3] = test system: Primary human monocytes from HD PBMC; assay type: cell-based
[4] = test system: allogenic HLA-matched melanoma cells; settings: PPI + chemotherapy (CISPLATIN) vs chemotherapy alone
Description: as §1

[5] = test system: B16-OVA melanoma; assay: Flow cytometry of tumor-infiltrating leukocytes after DC-OVA257-264 vaccination; assay type: in vivo, mice; settings: 7-day-old melanomas, DC-OVA257-264 vaccine, PPI i.p. on day 3 post vaccine, analysed after 24h; vs PBS
[6] = Dosing experiments for tolerated dose; design: species or system mice; settings: mouse, in vivo; dosing experiments ranging from 1.25-600 mg/kg; read-out: highest tolerated dose
[7] = test system: STAT6; assay: pSTAT evaluation in primary monocytes, IL13 stimulation; assay type: cell-based, human; settings: pre-treated 3 hours, in response to IL13 (30 min)
[8] = test system: B16-OVA cells; assay: TIL effector function (intracellular IFNγ) after infusion of activated CFSE-labelled OTI cells; assay type: in vivo, mice
[9] = test system: STAT3; assay: STAT3 phosphorylation state in circulating monocytes of treated patients; assay type: in vivo, advanced melanoma patients; settings: with respect to cells obtained prior to PPI administration
Description: as §1

[10] = test system: STAT1; assay: pSTAT evaluation in primary monocytes, IFNa stimulation; assay type: cell-based, human; settings: pre-treated 3 hours, in response to IFNa (30 min)
[11] = test system: transgenic adenocarcinoma of the mouse prostate (TRAMP); assay: IFN-γ production of prostate-infiltrating tumor-specific T cells after HSCT, DLI and DC-Tag-IV vaccination; assay type: in vivo, mice; settings: PPI i.p. 3 days after DC-Tag-IV vaccine, killed after 24 h; vs PBS
[12] = test system: B16 melanoma; assay: Survival of mice bearing B16 melanoma not expressing OVA (OTI control; TBI plus TRP-2-sensitized splenocytes); assay type: in vivo
[13] = test system: B16-OVA melanoma cells; assay: Tumor extracellular pH (pHe) by magnetic resonance spectroscopy (MRS); assay type: in vivo, mice; settings: esomeprazole 12.5 mg/kg i.p.; reached within 60 min; baseline approximately 6.5
[14] = test system: B16-OVA cells; assay: Functional avidity of tumor CD8+ T cells in the active immunotherapy model (naïve OTI transfer, DC-OVA257-264 vaccine); assay type: in vivo, mice; settings: PPI i.p. at day 11, sacrificed 1 day later; vs PBS
[15] = test system: STAT6; assay: STAT6 phosphorylation state in circulating monocytes of treated patients; assay type: in vivo, advanced melanoma patients; settings: with respect to cells obtained prior to PPI administration
Description: as §1

[16] = test system: B16-OVA; assay: Survival with adoptive immunotherapy (activated OTI cells) combined with PPI; assay type: in vivo, mice
[17] = test system: STAT3; assay: pSTAT evaluation in primary monocytes, IL6 stimulation; assay type: cell-based, human; settings: pre-treated 3 hours, in response to IL6 (30 min)

Structure (SMILES): COc1ccc2nc([S@@+]([O-])Cc3ncc(C)c(OC)c3C)[nH]c2c1 [esomeprazole]
- ex-vivo secretion of VEGF-A ([1]; before treatment 120±100): 104±58
- ex-vivo secretion of TGFβ ([1]; before treatment 1809±900): 1502 ± 755 pg/mL
- frequency of MDSC in peripheral blood [2]: significantly and rapidly decreases
- total CD14+, CD3+, CD4+, CD19+ cells or granulocytes in peripheral blood [2]: no change
- release of cytokines/chemokines such as IL-8, GRO and MCD ([3]; PPI pretreatment, data not shown): did not affect
- cytokine/chemokine secretion ([3]; esomeprazole 100 µg/ml pre-treatment 3 hours, then mel-EXO 100 µg for 24 hours): significantly reduced
- tumor immunity in peripheral blood [4]: significant increase
- inflammatory infiltrate of the tumor mass [5]: did not substantially modify
- MTD [6]: 12.5 mg/kg
- STAT6 phosphorylation [7]: inhibit
- frequency of CFSE+ OT-1 cells ([8]; 12-day-old melanoma, PPI 24h after OTI infusion, sacrificed 1 day later, vs PBS): comparable
- percentage of CD44+CD8+IFNY+ T cells in tumor-derived CFSE+ T cells ([8]; 12-day-old melanoma, PPI 24h after OTI infusion, vs PBS): significantly enhanced
- IFNY production by CD8+CD44+ T cells isolated from the spleen, lung and kidney ([8]; CFSE+ and CFSE- subsets, PPI- vs PBS-treated groups): did not differ
- IFNY production in CFSE- TILs ([8]; endogenous T cells, PPI-treated vs PBS-treated mice): higher IFNY production
- reduction in STAT3 phosphorylation state [9]: 20%
- STAT1 phosphorylation [10]: inhibit
- population of TIL specifically reacting against the tumor antigen (CD44+IFN-γ+ within CD8+) [11]: markedly increased
- survival of mice with B16 melanomas not expressing OVA ([12]; OTI cells and PPI treatment): did not impact
- Survival ([12]; TBI 600 Rad, TRP-2-sensitized splenocytes plus PPI vs single adoptive transfer of splenocytes only): significantly prolonged
- tumor pHe [13]: 7.0
- increase in ability of magnetic bead sorted CD8+ T cells to recognize OVA257-264 [14]: by at least one log
- reduction in STAT6 phosphorylation state [15]: 15%
- animal survival ([16]; 8-day melanoma, combined treatment with PPI (12.5 mg/kg) and OTI cells, relative to PBS alone): doubling in the overall survival rate
- tumor growth inhibition ([16]; PPI administered before OTI adoptive transfer): equal tumor growth inhibition
- STAT3 phosphorylation [17]: inhibit
